Converted amounts (≈) assume the structure as drawn.
Assays:
[1] = system: pAMPK; assay: pAMPK immunoblotting in Beas2B cells (Table 1); type: cell-based; conditions: Homo sapiens, BEAS-2B, DMEM media without glucose, compounds 18 h
Experimental: Additional compounds in Table 1 were or can be prepared according to the above-described Examples. Human bronchial epithelial cells (Beas2B) were seeded in 6-well plates for 18 h. Cells were then exposed to DMEM media without glucose and compounds at various concentrations for an additional 18 h before being collected for immunoblotting.

[2] = system: Diet-induced obese mice; assay: Diet-induced obese mice study, 14 days dosing; type: in vivo; conditions: once daily for 14 days; BC1618 8 or 40 mg/kg/d
Experimental: FIG. 12. Diet-induced obese mice were fed a high-fat diet for 19 weeks and then injected with vehicle or drug once daily for 14 days. Daily body weights (in grams) of the mice are shown.
Diet-induced obese mice arrived from Jackson Labs and recovered two weeks in satellite housing before study. Mice were 25 weeks old and fed a high-fat diet for 19 weeks at the time of study. Body weight, fat and lean mass were measured and mice were grouped in order to match body weights at ˜46.5 g average per group prior to study. Following the acute dosing trial, mice were injected with vehicle or drug 1× daily between noon and 2 pm for 14 days (BC1618-L (low dose)=8 mg/kg/d, BC1618-H (high dose)=40 mg/kg/d). Body weight was recorded daily (FIGS. 12-15). FIG. 12 and FIG. 13 show body weight in grams and FIG. 14 and FIG. 15 show body weight as a percentage of body weight on day 0 (DO).
FIGS. 16-19 show the change (A) in body weight (BW) from day 0 to day 14 expressed as change in grams (FIG. 16 and FIG. 17) or as percent change from day 0 (FIG. 18 and FIG. 19).
Body composition was measured at DO in the body weight matched animals and again at day 14 (D14). Data in FIGS. 20-23 represent the change in fat mass from DO to D14 expressed as grams (FIG. 20 and FIG. 21) or as percent change (FIG. 22 and FIG. 23).
Data in FIGS. 24-27 represent the change in lean mass from DO to D14 expressed as grams (FIG. 24 and FIG. 25) and as percent change (FIG. 26 and FIG. 27). Overall there appears to be a modest effect of vehicle and drug to reduce lean mass over 14 days, but no differences between groups. Changes in BW over 14 days therefore reflect changes in fat mass and not lean mass.

[3] = system: phospho-AMPK; assay: phospho-AMPK / p-ACC immunoblotting in Beas2B cells (in vitro studies); type: cell-based, Human
Experimental: FIG. 3. (A) Beas2b cells were cultured in DMEM 2% media with glucose for 24 h before switching to glucose-free media. Cells were then exposed to either DMSO or Compound 1 (2 μM) in a time course before being collected for immunoblotting. (B) Beas2B cells were exposed to Compound 1 for 18 h at various doses before being collected for immunoblotting. (C) Beas2b cells were cultured in DMEM 2% media with glucose for 24 h before switching to glucose-free media. Cells were then exposed to AICAR at various doses with or without Compound 1 co-treatment. After 18 h, cells were collected before being assayed by immunoblotting.
FIG. 4. (A) Beas2b cells were cultured in DMEM 2% media with glucose for 24 h before switching to glucose-free media. Cells were then exposed to Compound 12 in a dose dependent manner for 18 h before being collected for immunoblotting. (B) Beas2b cells were cultured in DMEM 2% media with glucose for 24 h before Compound 12 treatment in a dose dependent manner. After 18 h, cells were then collected for immunoblotting. (C) Beas2b cells were cultured in DMEM 2% media with glucose for 24 h before switching to glucose-free media. Cells were then exposed to Compound 12 for 18 h before being collected for mRNA analysis. (D) 50K PBMC cells were cultured in 96 well plates before being exposed to Compound 12 for 4 h. Cells were then treated with LPS (10 ng/ml) for additional 2 h. Media were then collected and IL-1b concentration was determined by ELISA.
FIG. 9. (A) Beas2b cells were cultured in DMEM 2% media with glucose for 24 h before switching to glucose-free media. Cells were then exposed to Compound 23 or metformin in a dose dependent manner for 18 h before being collected for immunoblotting. (B) Beas2b cells were cultured in DMEM 2% media with glucose for 24 h before switching to glucose-free media and treated with Compound 12 or Compound 23 in a dose dependent manner. After 6 h, cells were then collected for immunoblotting. (C) Beas2b cells were cultured in DMEM 2% media with glucose for 24 h before switching to glucose-free media and treated with Compound 12 or Compound 23 in a dose dependent manner. After 18 h, cells were then collected for immunoblotting. (D) Beas2b cells were transfected with AMPK phospho mimic T172D or phospho dead T172A mutant for 24 h. Cells were then switched to glucose-free media and exposed to Compound 23 in a dose or time dependent manner before being collected for immunoblotting. (E) Beas2b cells were transfected with control siRNA or Fbxo48 siRNA for 48 h before switching to glucose-free media. Cells were then exposed to Compound 23 in a dose dependent manner before being collected for immunoblotting. (F) Compound 23 chemical structure.
Compound 1 was studied in in vitro assays using Beas2B cells. […]
Compound 23 was tested in in vitro studies using Beas2B cells and compared with metformin.

[4] = system: High-fat diet fed C57BL6J mice; assay: Acute oral dosing study in high-fat diet fed mice; type: in vivo

| SMILES | IC50 [1] [µg/mL] | further results |
| --- | --- | --- |
| Cc1ccccc1OCC(O)CN(Cc1ccccc1)Cc1ccccc1 (centres unmarked) [Compound 9] | 1 to 10 (≈ 2.77 to 27.7 µM) |  |
| OC(CNc1ccc(F)cc1)COc1ccc(F)cc1 (centres unmarked) [Compound 28] | > 10 |  |
| OC(CNC(c1ccccc1)c1ccccc1)COc1ccc(C2CCCCC2)cc1 (centres unmarked) [Compound 18] | 1 to 10 (≈ 2.41 to 24.1 µM) |  |
| COc1ccc(OCC(O)CN(Cc2ccccc2)Cc2ccccc2)cc1 (centres unmarked) [Compound 6] | 1 to 10 (≈ 2.65 to 26.5 µM) |  |
| OC(COc1ccc(-c2ccccn2)cc1)CN(Cc1ccccc1)Cc1ccccc1 (centres unmarked) [Compound 22] | > 10 |  |
| OC(CNC(c1ccccc1)c1ccccc1)COc1ccc(F)cc1 (centres unmarked) [Compound 11] | 1 to 10 (≈ 2.85 to 28.5 µM) |  |
| NC(=O)c1ncn([C@@H]2O[C@H](CO)[C@@H](O)[C@H]2O)c1N [AICAR, reference compound] |  | body weight loss (daily body weight) [2]: effect of AICAR and BC1618 on body weight loss; change in body weight from day 0 to day 14 [2]: an effect due to AICAR or BC1618; change in fat mass from D0 to D14 [2]: apparent additive effect; concentration at which phospho-AMPK levels increased ([3]; Beas2b, glucose-free media, 18 h, dose dependent): ~0.05 mM; glucose tolerance (intraperitoneal glucose tolerance test) ([4]; 1 g/kg body weight glucose, data not shown): no difference in glucose tolerance; body weight at the time of study ([4]; two oral doses (AICAR 200 mg/kg, BC1618 20 mg/kg)): no differences in body weight; reduction of fasting plasma glucose compared to vehicle ([4]; two oral doses (AICAR 200 mg/kg, BC1618 20 mg/kg), 2 h after second dose, P=0.08): 10% |
| OC(CNc1ccc(C(F)(F)F)cc1)CNc1ccc(C(F)(F)F)cc1 [Compound 27] | > 10 |  |
| OC(CNC1c2ccccc2Oc2ccccc21)COc1ccccc1 (centres unmarked) [Compound 15] | > 10 |  |
| OC(CNC(c1ccccc1)c1ccccc1)COc1ccccc1 (centres unmarked) [Compound 13] | 1 to 10 (≈ 3 to 30 µM) |  |
| OC(CCc1ccccc1)CN(Cc1ccccc1)Cc1ccccc1 (centres unmarked) [Compound 25] | > 10 |  |
| CN(C)C(=N)N=C(N)N [metformin, reference compound] |  | concentration range increasing pAMPK phosphorylation and downstream substrate ACC phosphorylation ([3]; Beas2b, glucose-free media, 18 h): millimolar |
| OC(COc1ccc(OCC(O)CN(Cc2ccccc2)Cc2ccccc2)cc1)CN(Cc1ccccc1)Cc1ccccc1 (centres unmarked) [Compound 1] | 1 to 10 (≈ 1.62 to 16.2 µM) | concentration leading to a drastic increase in phospho-AMPK levels ([3]; Beas2B cells, 18 h, various doses): 2 µM; phospho-AMPK levels compared to vehicle control ([3]; Beas2b, glucose-free media, 2 μM, time course, within 2 h): drastically increased; phospho-AMPK and downstream p-ACC levels versus AICAR ([3]; Compound 1 alone at 4 μM, AICAR at 0.25 mM): well exceeding AICAR treatment at 0.25 mM; effect of co-treatment with AICAR on phospho-AMPK ([3]; Compound 1 at 4 μM with AICAR at various doses, 18 h): completely saturated AICAR effects |
| COCCN(Cc1ccc(OCC(O)CN(C)Cc2ccccc2)cc1)C(C)C (centres unmarked) [Compound 2] | > 10 |  |
| COc1ccc(OCC(O)CNCC(c2ccccc2)c2ccccc2)cc1 (centres unmarked) [Compound 17] | 1 to 10 (≈ 2.65 to 26.5 µM) |  |
| O=C(c1ccccc1)c1ccc(OCC(O)CN(Cc2ccccc2)Cc2ccccc2)cc1 (centres unmarked) [Compound 21] | > 10 |  |
| OC(COc1ccc(C2CCCCC2)cc1)CN(Cc1ccccc1)Cc1ccccc1 (centres unmarked) [Compound 19] | 1 to 10 (≈ 2.33 to 23.3 µM) |  |
| OC(CN(Cc1ccccc1)Cc1ccccc1)c1ccc2ccccc2c1 (centres unmarked) [Compound 24] | 1 to 10 (≈ 2.72 to 27.2 µM) |  |
| OC(COc1ccc2ccccc2c1)CN(Cc1ccccc1)Cc1ccccc1 (centres unmarked) [Compound 7] | 1 to 10 (≈ 2.52 to 25.2 µM) |  |
| CC1CN(Cc2ccc(OCC(O)CN(C)Cc3ccccc3)cc2)C1 (centres unmarked) [Compound 10] | > 10 |  |
| OC(CNCC(c1ccccc1)c1ccccc1)COc1ccccc1 (centres unmarked) [Compound 14] | 1 to 10 (≈ 2.88 to 28.8 µM) |  |
| OC(CNCC(c1ccccc1)c1ccccc1)COc1ccc(C2CCCCC2)cc1 (centres unmarked) [Compound 20] | > 10 |  |
| OC(COc1ccccc1)CN(Cc1ccccc1)Cc1ccccc1 (centres unmarked) [Compound 16] | 1 to 10 (≈ 2.88 to 28.8 µM) |  |
| OC(COc1ccc(C(F)(F)F)cc1)CN1CCc2ccccc2C1 (centres unmarked) [Compound 26] | > 10 |  |
| Cc1ccccc1CNCc1ccc(OCC(O)CN(C)Cc2ccccc2)cc1 (centres unmarked) [Compound 4] | > 10 |  |
| OC(CNCc1ccccc1)COc1ccc(OCC(O)CNCc2ccccc2)cc1 (centres unmarked) [Compound 8] | > 10 |  |
| CN(Cc1ccccc1)CC(O)COc1ccc(CNC2CC2)cc1 (centres unmarked) [Compound 3] | > 10 |  |
| Cc1ccc(OCC(O)CN(Cc2ccccc2)Cc2ccccc2)cc1 (centres unmarked) [Compound 5] | 1 to 10 (≈ 2.77 to 27.7 µM) |  |

From patent US11673853B2, “Small molecule AMPK activators” (University of Pittsburgh—Of the Commonwealth System of …, priority 2016, dated 2023)
